Test results taken from PubChem BioAssay AID248 (DTP/NCI, 2004).
Inconclusive results and toxic doses are left out. Rule as the data show it: active = T/C of 150% or more; inactive = T/C below 125%.

Tested on: L1210 leukemia ip in BDF1 mice, survival T/C
Assay: NCI In Vivo Anticancer Drug Screen. Data for tumor model L1210 Leukemia (intraperitoneal) in B6D2F1 (BDF1) mice
Settings: endpoint: mean survival time, higher = longer survival
In short: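 Tumor was transplanted into mice, which were then dosed with test compound or vehicle alone. Survival was recorded for each group, and the treated figure was expressed relative to the control figure.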

[1] = dose: 100.0 mg/kg/injection, schedule: Q04DX002 (ip), vehicle: Klucel (hydroxypropylcellulose) (HPC)
[2] = dose: 200.0 mg/kg/injection, schedule: Q04DX002 (ip), vehicle: Klucel (hydroxypropylcellulose) (HPC)
[3] = dose: 400.0 mg/kg/injection, schedule: Q04DX002 (ip), vehicle: Klucel (hydroxypropylcellulose) (HPC)
[4] = dose: 100.0 mg/kg/injection, schedule: Q01DX001 (ip), vehicle: saline
[5] = dose: 100.0 mg/kg/injection, schedule: Q04DX003 (ip), vehicle: saline
[6] = dose: 200.0 mg/kg/injection, schedule: Q01DX001 (ip), vehicle: saline
[7] = dose: 200.0 mg/kg/injection, schedule: Q04DX003 (ip), vehicle: saline
[8] = dose: 400.0 mg/kg/injection, schedule: Q01DX001 (ip), vehicle: saline
[9] = dose: 400.0 mg/kg/injection, schedule: Q04DX003 (ip), vehicle: saline
[10] = dose: 50.0 mg/kg/injection, schedule: Q01DX009 (ip), vehicle: acetone
[11] = dose: 100.0 mg/kg/injection, schedule: Q01DX009 (ip), vehicle: acetone
[12] = dose: 100.0 mg/kg/injection, schedule: Q04DX003 (ip), vehicle: acetone
[13] = dose: 200.0 mg/kg/injection, schedule: Q04DX003 (ip), vehicle: acetone
[14] = dose: 50.0 mg/kg/injection, schedule: Q01DX001 (ip), vehicle: saline

Measured: T/C

C#CC1(O)CCC2C3CCc4cc(O)ccc4C3CCC21C (stereo not given)
inactive: dose: 50.0 mg/kg/injection, schedule: Q01DX001 (sc), vehicle: steriod suspending solution 94 % of control | dose: 100.0 mg/kg/injection, schedule: Q01DX001 (sc), vehicle: steriod suspending solution 92 % of control | dose: 200.0 mg/kg/injection, schedule: Q01DX001 (sc), vehicle: steriod suspending solution 106 % of control | dose: 400.0 mg/kg/injection, schedule: Q01DX001 (sc), vehicle: steriod suspending solution 97 % of control

CC1CCN(P(c2ccccc2)N2CCC(C)CC2)CC1
inactive: [1] 97 % of control | [2] 97 % of control | [3] 100 % of control

CCCC(CN(CCN(C)C)Cc1ccccc1)c1ccc(OC)cc1 (stereo not given)
inactive: [4] 101 % of control

Nc1nc2c(c(-c3ccccc3)n1)CN(CCCC(=O)O)C2=O
inactive: [4] 103 % of control | [5] 100 % of control | [6] 105 % of control | [7] 98 % of control | [8] 97 % of control | [9] 100 % of control

COC1OC(CO)C(O)C([N+](=O)[O-])C1O (stereo not given)
inactive: [5] 98 % of control | [7] 102 % of control | [9] 105 % of control

COc1ccc(Cc2ccc(O)cc2)cc1
inactive: dose: 100.0 mg/kg/injection, schedule: Q04DX003 (ip), vehicle: other 90 % of control | dose: 200.0 mg/kg/injection, schedule: Q04DX003 (ip), vehicle: other 93 % of control | dose: 400.0 mg/kg/injection, schedule: Q04DX003 (ip), vehicle: other 98 % of control

N#CCC(=O)[O][Sn]([c]1ccccc1)([c]1ccccc1)[c]1ccccc1
inactive: dose: 1.56 mg/kg/injection, schedule: Q01DX009 (ip), vehicle: saline with Tween-80 99 % of control | dose: 3.12 mg/kg/injection, schedule: Q01DX009 (ip), vehicle: saline with Tween-80 92 % of control | dose: 6.25 mg/kg/injection, schedule: Q01DX009 (ip), vehicle: saline with Tween-80 89 % of control

O=C(O)CC(CC(=O)O)n1cccc1
inactive: dose: 75.0 mg/kg/injection, schedule: Q01DX001 (ip), vehicle: acetone 96 % of control | dose: 150.0 mg/kg/injection, schedule: Q01DX001 (ip), vehicle: acetone 91 % of control | dose: 300.0 mg/kg/injection, schedule: Q01DX001 (ip), vehicle: acetone 94 % of control

CC1(C)N=C(N)N=C(N)N1c1ccc(CCCCc2ccc(Cl)cc2Cl)cc1
inactive: dose: 5.0 mg/kg/injection, schedule: Q01DX001 (ip), vehicle: saline 88 % of control | dose: 10.0 mg/kg/injection, schedule: Q01DX001 (ip), vehicle: saline 92 % of control | dose: 20.0 mg/kg/injection, schedule: Q01DX001 (ip), vehicle: saline 103 % of control

N#C/C(=C\c1ccncc1)c1cccc2ccccc12
inactive: dose: 100.0 mg/kg/injection, schedule: Q04DX003 (ip), vehicle: Klucel (hydroxypropylcellulose) (HPC) 114 % of control | dose: 200.0 mg/kg/injection, schedule: Q04DX003 (ip), vehicle: Klucel (hydroxypropylcellulose) (HPC) 96 % of control | dose: 400.0 mg/kg/injection, schedule: Q04DX003 (ip), vehicle: Klucel (hydroxypropylcellulose) (HPC) 97 % of control

COCCNP(=O)(OC)OC
inactive: [10] 100 % of control | dose: 50.0 mg/kg/injection, schedule: Q04DX003 (ip), vehicle: acetone 96 % of control | dose: 100.0 mg/kg/injection, schedule: Q01DX001 (ip), vehicle: acetone 110 % of control | [11] 108 % of control | [12] 101 % of control | dose: 200.0 mg/kg/injection, schedule: Q01DX001 (ip), vehicle: acetone 102 % of control | dose: 200.0 mg/kg/injection, schedule: Q01DX009 (ip), vehicle: acetone 97 % of control | [13] 111 % of control

Nc1c(F)c(F)c(N=Nc2ccccc2)c(F)c1F
inactive: dose: 100.0 mg/kg/injection, schedule: Q01DX001 (ip), vehicle: carboxymethylcellulose (CMC) 95 % of control | dose: 200.0 mg/kg/injection, schedule: Q01DX001 (ip), vehicle: carboxymethylcellulose (CMC) 96 % of control | dose: 400.0 mg/kg/injection, schedule: Q01DX001 (ip), vehicle: carboxymethylcellulose (CMC) 95 % of control

CCCCCCCCCCCCc1ccc(CSC(C(=O)OC)C(SCc2ccc(CCCCCCCCCCCC)cc2)C(=O)OC)cc1 (stereo not given)
inactive: [5] 103 % of control | [7] 101 % of control | [9] 94 % of control

O=C(/C=N/O)Nc1ccc([N+](=O)[O-])cc1
inactive: [1] 92 % of control | [2] 100 % of control | [3] 92 % of control

O=C(O)CC1=C(O)c2ccccc2C(=O)C1=O
inactive: dose: 100.0 mg/kg/injection, schedule: Q01DX001 (ip), vehicle: water 97 % of control | dose: 200.0 mg/kg/injection, schedule: Q01DX001 (ip), vehicle: water 103 % of control | dose: 400.0 mg/kg/injection, schedule: Q01DX001 (ip), vehicle: water 97 % of control

CC(C)c1nc2c(c(=O)n(C)c(=O)n2C)n1C
inactive: [14] 102 % of control | [4] 96 % of control | [6] 96 % of control | [8] 108 % of control

CC1(C)CN(C(C)(C)C)CC(C)(C)C(=O)C1=O
inactive: dose: 50.0 mg/kg/injection, schedule: Q01DX001 (ip), vehicle: saline sonified 91 % of control | dose: 100.0 mg/kg/injection, schedule: Q01DX001 (ip), vehicle: saline sonified 98 % of control | dose: 200.0 mg/kg/injection, schedule: Q01DX001 (ip), vehicle: saline sonified 87 % of control

O=C(/C=C/c1ccccc1)CC(=O)c1ccccc1.O=C(/C=C/c1ccccc1)CC(=O)c1ccccc1.[Cu]
inactive: [14] 94 % of control | [4] 91 % of control | [6] 91 % of control | [8] 97 % of control

CCOC(=O)N/N=C/C(Br)=C\c1ccccc1
inactive: dose: 50.0 mg/kg/injection, schedule: Q01DX009 (ip), vehicle: saline with Tween-80 93 % of control | dose: 100.0 mg/kg/injection, schedule: Q04DX002 (ip), vehicle: saline with Tween-80 101 % of control | dose: 200.0 mg/kg/injection, schedule: Q01DX009 (ip), vehicle: saline with Tween-80 87 % of control | dose: 200.0 mg/kg/injection, schedule: Q04DX002 (ip), vehicle: saline with Tween-80 96 % of control

CNc1ccc(C(=O)OC)cc1
inactive: [4] 100 % of control | [6] 100 % of control | [8] 103 % of control

CCCN(CCC)CC(=O)N1CC(=O)Nc2ccccc21
inactive: dose: 25.0 mg/kg/injection, schedule: Q01DX009 (ip), vehicle: acetone 98 % of control | [10] 96 % of control | [11] 95 % of control | [12] 103 % of control | [13] 103 % of control
